Tests used:
[1] = Plasma concentration-time profile following 50 mg/kg GRX-917 and etifoxine in rats (FIG. 1); assay type: in vivo, rat
[2] = Stability in mouse liver microsomes; assay type: in vitro ADME; conditions: for half-life: read-out: T½
[3] = Phase 1 multiple-ascending dose study, plasma pharmacokinetics in healthy subjects; assay type: in vivo, human; design: Geometric mean trough concentration: unit not given here
Protocol: The first dose of study drug was given on Day 1. On Days 1 through 6, subjects subsequently received two (q12h) oral doses of study drug each day. A final single dose of study drug was given on Day 7. Each dose of study drug was given with a 240 mL glass of water at the end of ingestion of a standard meal. The meal was provided 30 minutes before dosing and was completed within 30 minutes or less. On Day 1 and Day 7, subjects were required to fast for 8 hours before the morning meal dose and for 2 hours post dose (water was freely available during this time).

[4] = Stability in rat liver microsomes; assay type: in vitro ADME; conditions: for half-life: read-out: T½
[5] = Stability in human liver microsomes; assay type: in vitro ADME; conditions: for half-life: read-out: T½
[6] = cited from earlier work

## [2H]C([2H])([2H])C([2H])([2H])NC1=Nc2ccc(Cl)cc2C(C)(c2ccccc2)O1 (racemic) [Deuterated Etifoxine, 6-chloro-N-(ethyl-d5)-4-methyl-4-phenyl-4H-3,1-benzoxazin-2-amine]
[1]
  AUC as compared to etifoxine: approximately 3 fold
[2]
  microsomal CLint: 464 µL/min/mg
  half-life: 15 min
[3]; 100 mg bid
  Induction of metabolism: did not induce metabolism
[3]; 100 mg q12 h, Day 1
  Geometric mean trough concentration: 11.6
[3]; 100 mg q12 h, Day 2
  Geometric mean trough concentration: 36.1
[3]; 100 mg q12 h, Day 4
  Geometric mean trough concentration: 39.3
[3]; 100 mg q12 h, Day 5
  Geometric mean trough concentration: 31.9
[3]; 100 mg q12 h, Day 6
  Geometric mean trough concentration: 34.0
[3]; 100 mg q12 h, Day 7 (12-hr post-dose)
  Geometric mean trough concentration: 27.1
[3]; 100 mg q12 h, Day 7 (pre-dose)
  Geometric mean trough concentration: 27.7
[3]; 150 mg bid (twice daily)
  Induction of metabolism: induces metabolism
[3]; 150 mg q12 h, Day 1
  Geometric mean trough concentration: 28.1
[3]; 150 mg q12 h, Day 2
  Geometric mean trough concentration: 43.8
[3]; 150 mg q12 h, Day 4
  Geometric mean trough concentration: 44.5
[3]; 150 mg q12 h, Day 5
  Geometric mean trough concentration: 39.2
[3]; 150 mg q12 h, Day 6
  Geometric mean trough concentration: 37.7
[3]; 150 mg q12 h, Day 7 (12-hr post-dose)
  Geometric mean trough concentration: 31.4
[3]; 150 mg q12 h, Day 7 (pre-dose)
  Geometric mean trough concentration: 33.3
[3]; 200 mg q12 h, Day 1
  Geometric mean trough concentration: 42.8
[3]; 200 mg q12 h, Day 2
  Geometric mean trough concentration: 72.3
[3]; 200 mg q12 h, Day 4
  Geometric mean trough concentration: 67.2
[3]; 200 mg q12 h, Day 5
  Geometric mean trough concentration: 62.4
[3]; 200 mg q12 h, Day 6
  Geometric mean trough concentration: 53.7
[3]; 200 mg q12 h, Day 7 (12-hr post-dose)
  Geometric mean trough concentration: 51.4
[3]; 200 mg q12 h, Day 7 (pre-dose)
  Geometric mean trough concentration: 58.9
[3]; 300 mg q12 h, Day 1
  Geometric mean trough concentration: 54.9
[3]; 300 mg q12 h, Day 2
  Geometric mean trough concentration: 87.4
[3]; 300 mg q12 h, Day 4
  Geometric mean trough concentration: 71.0
[3]; 300 mg q12 h, Day 5
  Geometric mean trough concentration: 70.0
[3]; 300 mg q12 h, Day 6
  Geometric mean trough concentration: 66.3
[3]; 300 mg q12 h, Day 7 (12-hr post-dose)
  Geometric mean trough concentration: 60.4
[3]; 300 mg q12 h, Day 7 (pre-dose)
  Geometric mean trough concentration: 63.0
[3]; Day 7, statistical analysis
  Tmax dependence on dose: independent of dose
[3]; both sexes, human, plasma, oral, Day 7, read-out: Geometric mean t1/2
  half-life: 38.8 to 82.1 h
[3]; both sexes, human, plasma, single and multiple oral doses of 100-300 mg q12h, post-dose, read-out: Median Tmax
  Tmax: 120 to 211 min
[3]; renal elimination
  Fraction of dose excreted as deuterated etifoxine: < 0.004%
[4]
  microsomal CLint: 503 µL/min/mg
  half-life: 14 min
[5]
  microsomal CLint: 170 µL/min/mg
  half-life: 41 min

## CCNC1=Nc2ccc(Cl)cc2C(C)(c2ccccc2)O1 (stereo not shown) [Etifoxine, 6-chloro-2-(ethylamino)-4-methyl-4-phenyl-4H-3,1-benzoxazine]
[6]; continued dosing over time
  Auto-induction of CYP enzyme(s) on continued dosing: exhibits an auto-induction effect
[6]; humans
  Half-life in humans: 240 to 360 min
[2]
  microsomal CLint: 657 µL/min/mg
  half-life: 11 min
[4]
  microsomal CLint: 915 µL/min/mg
  half-life: 8 min
[5]
  microsomal CLint: 309 µL/min/mg
  half-life: 22 min
